According to article PMC7697191, “Identification of Novel Influenza Polymerase PB2 Inhibitors Using a Cascade Docking Virtual Screening Approach” (Molecules, 2020):

What was measured:
H1N1 PB2 CBD = H1N1 PB2 CBD (Influenza A virus, UniProt P03427); test: SPR binding assay on immobilized H1N1 PB2 CBD; design: species or system influenza A/WSN/1933 (H1N1); conditions: Biacore T200, CM5 chip, affinity binding model
in vitro = conditions: dog
[1] = tested on: A/Hong Kong/8/68 (HK/68, H3N2); format: cell-based; conditions: MDCK cells, CPE inhibition

H1N1 PB2 CBD, sequence (P03427 318-486 limits assumed): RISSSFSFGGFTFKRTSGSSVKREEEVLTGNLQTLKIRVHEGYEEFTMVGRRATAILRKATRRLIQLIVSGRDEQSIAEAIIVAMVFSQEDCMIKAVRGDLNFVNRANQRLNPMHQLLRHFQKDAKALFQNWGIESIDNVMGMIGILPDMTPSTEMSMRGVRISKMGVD

SMILES	Kd (H1N1 PB2 CBD)	CC50 at 72 h (in vitro)	activity against the A/Hong Kong/8/68 (HK/68, H3N2) strain, in words [1]
Cc1c(-c2ccccc2F)[nH]c2ccc(CNC(=O)CCc3cc(O)no3)cc12 [11C5]	2.26 µM	> 100 µM	–
Cc1cc(CN2CCOc3c(O)cc(-c4ccccc4Cl)cc3C2)on1 [11C6]	1.7 µM	> 100 µM	–
O=C(NCc1nc(C2CCCCC2)no1)c1cc(-c2ccccc2F)n[nH]1 [11C8]	6.16 µM	> 100 µM	–
c1csc(CNc2nc3nonc3nc2NCCCN2CCOCC2)c1 [11D2]	0.21 µM	> 100 µM	–
C=CCn1cc(CNCc2noc(-c3ccc4c(c3)OCO4)n2)c(C)n1 [11D4]	1.87 µM	> 100 µM	–
c1cc(Cn2ccnc2-c2nc3c(s2)CCCC3)cc(-c2nnn[nH]2)c1 [12B1]	6.77 µM	> 100 µM	–
C=CCn1cc(-c2cc(-c3ccc(C(=O)O)cc3)[nH]c(=N)c2C#N)cn1 [12C5]	2.44 µM	> 100 µM	–
NS(=O)(=O)CCCC(=O)NCc1ccc2[nH]c3c(c2c1)CCCCCC3 [13D7]	1.13 µM	> 100 µM	–
CCSc1ncc(-c2cc(-c3c(C)nn(C)c3C)nc(N)c2C#N)cn1 [21A5]	0.54 µM	> 100 µM	–
Cc1cccnc1CCNc1nc2nonc2nc1NCc1cccs1 [21B1]	1.95 µM	> 100 µM	no activity
CCC(CC)O[C@@H]1C=C(C(=O)O)C[C@H](N)[C@H]1NC(C)=O [OC, Oseltamivir carboxylate, reference compound]	–	> 100 µM	–
O=C(O)[C@H]1C2CCC(CC2)[C@@H]1Nc1nc(-c2c[nH]c3ncc(F)cc23)ncc1F [VX-787, reference compound]	0.054 µM	> 100 µM	–
